Counter-ions that a name gives are not always drawn. Like-named read-outs stand apart in the source and are kept apart here.
Assay: standard maximal electroshock test (MES), anticonvulsant activity
Assay type: in vivo
Settings: tested as HCl salt
Protocol: The anticonvulsant activity of certain compounds of the present invention were determined by a standard maximal electroshock test (MES); that described by L.A.Woodbury and V.D.Davenport, Arch. Int.Pharmacodyn, 1952 92 97.

[1] = ip, I.P administration, read-out: ED50.I.P
[2] = po, P.O administration, read-out: ED50.P.O

| SMILES | ED50 [1] [mg/kg] | ED50 [2] [mg/kg] |
| --- | --- | --- |
| CNc1nccc2c1nnn2Cc1c(F)cccc1F [Example 5, 1-(2,6-difluorobenzyl)-4-(methylamino)-1H-1,2,3-triazolo [4,5-c] pyridine] | 7.8 | 5.3 |
| CNc1nccc2c1nnn2Cc1ccccc1 [Example 8, 1-benzyl-4-(methylamino)-1H-1,2,3-triazolo[4.5-c]pyridine] | 7.8 | 8.9 |
| CNc1nccc2c1nnn2Cc1cc(F)ccc1F [Example 7, 1-(2,5-difluorobenzyl)-4-(methylamino)-1H-1,2,3-triazolo [4,5-c]pyridine] | 5 | 4.3 |
| CNc1nccc2c1nnn2Cc1ccccc1F [Example 1, 1-(2-fluorobenzyl)-4-(methylamino)-1H-1,2,3-triazolo[4,5-c]pyridine] | 4.5 | 4.4 |
| CN(C)c1nccc2c1nnn2Cc1ccccc1F [Example 4, 4-(dimethylamino)-1-(2-fluorobenzyl)-1H-1,2,3-triazolo [4,5-c]pyridine] | 6.3 | 6.6 |
| Nc1nccc2c1nnn2Cc1c(F)cccc1F [Example 6, 4-amino-1-(2,6,-difluorobenzyl)-1H-1,2,3-triazolo [4,5-c]pyridine hydrochloride] | 6.3 | 3.7 |
| CCNc1nccc2c1nnn2Cc1ccccc1F [Example 3, 4-(ethylamino)-1-(2-fluorobenzyl)-1H-1,2,3-triazolo[4,5-c] pyridine] | 8.3 | 10.3 |
| Fc1ccccc1Cn1nnc2c(NC3CC3)nccc21 [Example 2, 4-(cyclopropylamino)-1-(2-fluorobenzyl)-1H-1,2,3-triazolo [4,5-c] pyridine] | 4.8 | 6.3 |
| Fc1cccc(F)c1Cn1nnc2c(NC3CC3)nccc21 [Example 10, 4-(cyclopropylamino)-1-(2,6-difluorobenzyl)-1H-1,2,3-triazolo[4,5-c]pyridine] | 4.1 | 8.1 |

— patent EP0399653B1, “Anticonvulsant triazolo[4,5-c]pyridine derivatives” (THE WELLCOME FOUNDATION LIMITED, priority 1989, dated 1990)
